This is an account of results in patent publication US20060142291A1, “Use of formaldehyde and formaldehyde-releasing compounds in a composition for controlling mycobacteria” (priority 2004, published 2006).

Common to all, as to test: Activity of bactericidal solutions against mycobacteria (MIC, 7H9 liquid medium, turbidity and streaking on 7H10 agar)
Holding throughout (assay type): cell-based

One experiment relates to M. chelonae ATCC 19236. Conditions: ATCC 19236, 37° C., 3 weeks incubation, % by weight.
The subject of a further experiment is M. terrae ATCC 15755. Conditions: ATCC 15755, 37° C., 3 weeks incubation, % by weight.
Another experiment has as its system M. chelonae ATCC 35725. Conditions: for Activity at MIC (%) M. chelonae (28° C.): ATCC 35725, 28° C., 3 weeks incubation, % by weight.
Experiment [1] deals with M. immunogenum ATCC 700505. Conditions: 3 weeks incubation, % by weight; for Activity at MIC (%) M. immunogenum (28° C.): ATCC 700505, 28° C.; for Activity at MIC (%) M. immunogenum (37° C.): ATCC 700505, 37° C.

Bounds are passed on as bounds.

As for `OCCN1CN(CCO)CN(CCO)C1` [Comparison 1, 2,2′,2″-(hexahydro-1,3,5-triazine-1,3,5-triyl)triethanol], in the experiment on M. chelonae ATCC 19236, the “Activity at MIC (%) M. chelonae (37° C.)” value was found to be 0.3%. For the same compound, the “Activity at MIC (%) M. terrae (37° C.)” value with M. terrae ATCC 15755 was determined as 0.3%. Besides, the “Activity at MIC (%) M. chelonae (28° C.)” value with M. chelonae ATCC 35725 is reported as 0.3%. The “usage concentration active against M. chelonae” value with M. chelonae ATCC 35725 (strain and temperature not stated) came out at 0.3 % by weight. For the same compound, in experiment [1], the “Activity at MIC (%) M. immunogenum (28° C.)” value is reported as “≦0.075%” and the “Activity at MIC (%) M. immunogenum (37° C.)” value was “≦0.075%”.

Regarding `CCCCCCCCn1sccc1=O` [Comparison 2, 2-octyl-3(2H)-isothiazol-3-one], the “Activity at MIC (%) M. chelonae (37° C.)” value in the experiment on M. chelonae ATCC 19236 is given as above 0.3%. Also, in the experiment with M. terrae ATCC 15755, the “Activity at MIC (%) M. terrae (37° C.)” value is on record as above 0.3%. Besides, the “Activity at MIC (%) M. chelonae (28° C.)” value with M. chelonae ATCC 35725 is given as above 0.3%. Also, in experiment [1], the “Activity at MIC (%) M. immunogenum (28° C.)” value is above 0.3% and the “Activity at MIC (%) M. immunogenum (37° C.)” value is on record as above 0.3%.
